Measurements from patent US20220023335A1, “COMPOSITION FOR PREVENTION AND/OR IMPROVEMENT OF ADVERSE DRUG REACTION, SYMPTOM ASSOCIATED WITH ADVERSE DRUG REACTION, AND/OR ADVERSE REACTION ASSOCIATED WITH MEDICAL TREATMENT” (MiZ Company Limited, priority 2020, published 2022).

Columns and labels:
[1] = known; cited from earlier work
[2] = system: adverse drug reactions of lost hair on the head and rough skin; settings: person, hydrogen gas 6.6% by volume, approximately 120 mL/min
[3] = system: adverse drug reactions of malaise and rough skin; settings: person; hydrogen gas 4% to 5% by volume, approximately 200 mL/min, three to five hours per day, plus 500 mL per day of 7 ppm hydrogen water; three months
[4] = system: malaise and nausea after radiotherapy; settings: cancer patient after radiotherapy, hydrogen gas 3% to 4% by volume, approximately 120 mL/min
[5] = system: rhabdomyolysis caused by the antibacterial agent; settings: person, hydrogen gas 6.6% by volume, approximately 120 mL/min, 90 minutes per day for two weeks
Text: They lost strength in the body and was taken to hospital by ambulance. […] They were discharged from hospital one week later, but the tiredness persisted, and they had difficulty in putting strength into the limbs. […] Their condition improved to the extent that they could have a walk.

[6] = system: adverse reactions to hemodialysis (walking difficulty, edema); settings: person on hemodialysis, hydrogen approximately 5% in air, 200 mL/min, three to four hours per day
Text: A patient developed renal failure as a complication of diabetes mellitus and has been receiving hemodialysis since 2006.

[7] = system: adverse drug reaction of persistent insomnia, malaise; settings: person
Text: A patient with esophageal cancer experienced an adverse drug reaction of persistent insomnia due to treatment with anticancer agents, lost appetite because of malaise, and could not even go out. […] The inhalation time per day was two to three hours. […] When they drank too much alcohol, they used to have a severe hangover.

[8] = system: adverse drug reactions of sleepiness and tiredness; settings: person, three days later

Compound: [2H][2H] [D2, deuterium]
- superoxide eliminating effect compared with H2 [1]: stronger

Compound: [HH] [hydrogen gas, molecular hydrogen]
- rough skin ([2]; sarcoma, anticancer agents and Opdivo, approximately one month later): the rough skin started improving
- hair on the head ([2]; inhalation continued for six months after anticancer treatment): started growing
- malaise [3]: malaise subsided
- skin condition [3]: the skin started becoming lustrous
- nausea ([4]; 90 minutes later): Nausea was gradually resolving
- malaise (body feeling) ([4]; one hour after start of inhalation): they felt the body becoming light
- strength in the limbs ([5]; new quinolone antibacterial agent): became gradually able to put strength into the limbs
- tiredness [5]: reduced tiredness
- walking difficulty ([6]; from 10 days after initiation): able to walk
- edema after dialysis ([6]; from one month after initiation): edema was reduced
- sleep (insomnia) ([7]; esophageal cancer, hydrogen gas 1.3% by volume, approximately 30 mL/min, two to three hours per day, following the second inhalation): could sleep soundly
- ability to go out / body feeling ([7]; hydrogen gas 1.3% by volume, approximately 30 mL/min, two to three hours per day): the patient was able to go out
- hangover after too much alcohol ([7]; hydrogen inhaled before going to sleep): a hangover started improving earlier than usual
- tiredness of the body after taking the drugs ([8]; cedar pollinosis, hydrogen gas 6.6% by volume, approximately 120 mL/min, 90 minutes to three hours per day, plus 7 ppm hydrogen water 500 mL to 1 L per day): reduced
- sleepiness / clearness of the head ([8]; hydrogen gas 6.6% by volume plus 7 ppm hydrogen water): they felt that the head was cleared
